Measured values taken from US20210277003A1, “OGA INHIBITOR COMPOUNDS” (Janssen Pharmaceutica NV, priority 2018, published 2021).

Molecular target: T1, recombinant human Meningioma Expressed Antigen 5 (MGEA5), also referred to as O-GlcNAcase (OGA) (Homo sapiens, UniProt O60502)
T1 construct: Full length OGA enzyme was purchased at OnGene (cat #TP322411); purchased OnGene (so in the source)
T1 sequence (O60502 1-916): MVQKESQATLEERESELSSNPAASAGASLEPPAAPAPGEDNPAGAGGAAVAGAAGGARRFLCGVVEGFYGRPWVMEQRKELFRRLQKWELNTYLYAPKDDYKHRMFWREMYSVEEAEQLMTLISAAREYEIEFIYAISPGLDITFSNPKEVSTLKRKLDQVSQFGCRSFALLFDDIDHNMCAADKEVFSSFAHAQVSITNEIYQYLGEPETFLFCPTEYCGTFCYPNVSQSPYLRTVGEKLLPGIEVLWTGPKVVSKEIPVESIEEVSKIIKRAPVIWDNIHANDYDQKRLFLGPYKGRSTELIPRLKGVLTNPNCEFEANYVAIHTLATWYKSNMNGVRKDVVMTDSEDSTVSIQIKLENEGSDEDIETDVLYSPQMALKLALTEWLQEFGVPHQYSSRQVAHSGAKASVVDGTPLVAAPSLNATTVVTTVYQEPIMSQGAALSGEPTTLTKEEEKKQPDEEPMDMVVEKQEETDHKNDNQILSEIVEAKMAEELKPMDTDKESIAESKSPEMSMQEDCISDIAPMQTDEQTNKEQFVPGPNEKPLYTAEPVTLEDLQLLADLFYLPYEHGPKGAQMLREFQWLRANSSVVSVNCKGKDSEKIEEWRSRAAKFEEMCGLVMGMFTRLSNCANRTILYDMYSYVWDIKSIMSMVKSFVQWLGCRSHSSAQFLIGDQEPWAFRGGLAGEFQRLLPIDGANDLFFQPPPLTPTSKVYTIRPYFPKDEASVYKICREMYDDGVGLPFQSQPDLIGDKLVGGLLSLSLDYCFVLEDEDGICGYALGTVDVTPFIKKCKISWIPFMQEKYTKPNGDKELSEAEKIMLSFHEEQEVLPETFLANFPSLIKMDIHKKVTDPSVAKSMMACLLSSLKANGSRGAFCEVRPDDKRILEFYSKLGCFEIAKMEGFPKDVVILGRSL
Experiment: OGA biochemical assay: inhibition of hydrolysis of fluorescein mono-ß-D-N-Acetyl-Glucosamine (FM-GlcNAc), fluorescence readout
Conditions: FM-GlcNAc substrate; for Emax: read-out: Enzymatic Emax (%); for IC50: read-out: Enzymatic hOGA, pIC50 (converted)
Excerpt: The assay is based on the inhibition of the hydrolysis of fluorescein mono-ß-D-N-Acetyl-Glucosamine (FM-GlcNAc) (Mariappa et al. 2015, Biochem J 470:255) by the recombinant human Meningioma Expressed Antigen 5 (MGEA5), also referred to as O-GlcNAcase (OGA). The hydrolysis FM-GlcNAc (Marker Gene technologies, cat #M1485) results in the formation of ß-D-N-glucosamineacetate and fluorescein. The fluorescence of the latter can be measured at excitation wavelength 485 nm and emission wavelength 538 nm. An increase in enzyme activity results in an increase in fluorescence signal. Full length OGA enzyme was purchased at OnGene (cat #TP322411). The enzyme was stored in 25 mM Tris.HCl, pH 7.3, 100 mM glycine, 10% glycerol at −20° C. Thiamet G and GlcNAcStatin were tested as reference compounds (Yuzwa et al. 2008 Nature Chemical Biology 4:483; Yuzwa et al. 2012 Nature Chemical Biology 8:393). The assay was performed in 200 mM Citrate/phosphate buffer supplemented with 0.005% Tween-20. 35.6 g Na2HPO4 2 H2O (Sigma, #C0759) were dissolved in 1 L water to obtain a 200 mM solution. 19.2 g citric acid (Merck, #1.06580) was dissolved in 1 L water to obtain a 100 mM solution. pH of the sodium phosphate solution was adjusted with the citric acid solution to 7.2. The buffer to stop the reaction consists of a 500 mM Carbonate buffer, pH 11.0. 734 mg FM-GlcNAc were dissolved in 5.48 mL DMSO to obtain a 250 mM solution and was stored at −20° C. OGA was used at a 2 nM concentration and FM-GlcNAc at a 100 uM final concentration. Dilutions were prepared in assay buffer. 50 nl of a compound dissolved in DMSO was dispensed on Black Proxiplate™ 384 Plus Assay plates (Perkin Elmer, #6008269) and 3 μl fl-OGA enzyme mix added subsequently. Plates were pre-incubated for 60 min at room temperature and then 2 μl FM-GlcNAc substrate mix added. […] Plates were briefly centrifuged for 1 min at 1000 rpm and incubate at room temperature for 6 h. To stop the reaction 5 μl STOP buffer were added and plates centrifuge again 1 min at 1000 rpm. Fluorescence was quantified in the Thermo Scientific Fluoroskan Ascent or the PerkinElmer EnVision with excitation wavelength 485 nm and emission wavelength 538 nm. For analysis a best-fit curve is fitted by a minimum sum of squares method. From this an IC50 value and Hill coefficient was obtained. High control (no inhibitor) and low control (saturating concentrations of standard inhibitor) were used to define the minimum and maximum values.

Compound | Emax [%] | IC50 [nM] | Enzymatic hOGA; pIC50
CN(C)S(=O)(=O)Cn1ccc2c(Nc3c(Cl)cncc3Cl)nccc21 [Compound 3] | 92 | 933 | –
Clc1cccc(Cl)c1Nc1nccc2c1ccn2CCC1COC1 [Compound 98] | 98 | – | 6.54
CCC(Cn1ccc2c(Nc3c(Cl)cc(F)cc3Cl)nccc21)OC (stereo not drawn) [Compound 104] | 96.9 | – | 6.14
CCC(C)(O)Cn1ccc2c(Nc3c(Cl)cc(F)cc3Cl)nccc21 (stereo not drawn) [Compound 106] | 103 | – | 6.64
CCC(C)(F)Cn1ccc2c(Nc3c(Cl)cc(F)cc3Cl)nccc21 (stereo not drawn) [Compound 111] | 102 | – | 7.62
Cn1cnc(Cn2ccc3c(Nc4c(Cl)cc(F)cc4Cl)nccc32)c1 [Compound 120] | 99.2 | – | 6.77
Fc1cc(Cl)c(Nc2nccc3c2ccn3Cc2cocn2)c(Cl)c1 [Compound 121] | 103 | – | 7.25
Fc1cc(Cl)c(Nc2nccc3c2ccn3Cc2cnco2)c(Cl)c1 [Compound 142] | 99.2 | – | 6.56
Cc1cnc(Cn2ccc3c(Nc4c(Cl)cc(F)cc4Cl)nccc32)o1 [Compound 143] | 100 | – | 7.41
Fc1cnc(-n2ccc3c(Nc4c(Cl)cccc4Cl)nccc32)nc1 [Compound 164] | 101 | 37.2 | –
Cc1ccc(-n2ccc3c(Nc4c(Cl)cccc4Cl)nccc32)nc1 [Compound 165] | 101 | 38 | –
Cn1ccnc1Cn1ccc2c(Nc3c(Cl)cccc3Cl)nccc21 [Compound 168] | 98.1 | 562 | –
N#Cc1cnc(-n2ccc3c(Nc4c(Cl)cc(F)cc4Cl)nccc32)[nH]1 [Compound 181] | 92.7 | 794 | –
Fc1cc(Cl)c(Nc2nccc3c2ccn3-c2ncco2)c(Cl)c1 [Compound 182] | 97.8 | 309 | –
Fc1cc(Cl)c(Nc2nccc3c2ccn3-c2c[nH]cn2)c(Cl)c1 [Compound 190] | 96.3 | 562 | –
Clc1cccc(Cl)c1Nc1nccc2c1ccn2Cc1ncc[nH]1 [Compound 191] | 98.8 | 229 | –

Next, values leading:

Emax [%] | IC50 [nM] | Enzymatic hOGA; pIC50 | Compound
99 | 91.2 | – | Cc1ccnc(C)c1Nc1nccc2c1ccn2CC1CC1(F)F (stereo not drawn) [Compound 2]
93 | – | 6.03 | Cc1ccnc(C)c1Nc1nccc2c1ccn2CC1COC1 [Compound 4]
102 | – | 6.94 | CCCCn1ccc2c(Nc3c(C)cnnc3C)nccc21 [Compound 17]
102 | – | 7.4 | CCCCn1ccc2c(Nc3c(C)cnc4c3OCCO4)nccc21 [Compound 20]
96 | – | 6.61 | Cc1ccnc(C)c1Nc1nccc2c1ccn2CCC1CCO1 (stereo not drawn) [Compound 21]
99 | – | 6.54 | Cc1ccnc(C)c1Nc1nccc2c1ccn2CC1(C)COC1 [Compound 22]
83 | 2190 | – | COCCn1ccc2c(Nc3c(Cl)cncc3Cl)nccc21 [Compound 28]
88 | 1620 | – | Cc1cncc(C)c1Nc1nccc2c1ccn2CC1COC1 [Compound 29]
93 | 1410 | – | Cc1cncc(Cl)c1Nc1nccc2c1ccn2CC1COC1 [Compound 30]
98 | 234 | – | Cc1cncc(C(C)C)c1Nc1nccc2c1ccn2CC1COC1 [Compound 32]
99 | 309 | – | CCCC(C)n1ccc2c(Nc3c(C)cncc3C)nccc21 (stereo not drawn) [Compound 33]
100 | 275 | – | N#CCCCn1ccc2c(Nc3c(Cl)cncc3Cl)nccc21 [Compound 36]
101 | 251 | – | CCn1ccc2c(Nc3c(C)cc(F)cc3C)nccc21 [Compound 37]
101 | 138 | – | Cc1ccnc(C)c1Nc1nccc2c1ccn2CC(F)(F)F [Compound 79]
101 | – | 7.44 | CCC(O)Cn1ccc2c(Nc3c(C)ccnc3C)nccc21 (stereo not drawn) [Compound 93]
99 | – | 6.86 | Cc1ccnc(C)c1Nc1nccc2c1ccn2CCC1CC1(F)F (stereo not drawn) [Compound 94]
99 | 229 | – | CCCCn1ccc2c(Nc3c(C)cc(N(C)C(C)=O)cc3C)nccc21 [Compound 102]
99.7 | – | 6.12 | Cc1ccnc(C)c1Nc1nccc2c1ccn2CCN1CC(F)(F)C1 [Compound 103]
102 | – | 7.32 | CCC(C)(F)Cn1ccc2c(Nc3c(C)ccnc3C)nccc21 (stereo not drawn) [Compound 108]
98.3 | 182 | – | Cc1ncnc(C(C)C)c1Nc1nccc2c1ccn2CCC(F)(F)F [Compound 192]
